Experimental data: publication PMC9317443 (Viruses, 2022)
Where two headings read alike, the source gives them in different places.

Assays:
[1] = MTT cytotoxicity / cell viability in CHIKV replicon cells; settings: hamster, BHK-21-GLuc-nsP-CHIKV-99659 cells (CHIKV replicon cells)
[2] = tested on: CHIKV replicon; experiment: CHIKV replicon-based assay (GLuc activity in BHK-21-GLuc-nsP-CHIKV-99659 cells); settings: for inhibition at 10 µM: read-out: GLuc Inhibition; for EC50: 48 h, read-out: EC50 (concentration required to inhibit 50% of the GLuc activity); for SI (CC50/EC50): replicon-based assay
[3] = tested on: replication-transcription complex (RTC); settings: cited from earlier work
[4] = tested on: CHIKV-nanoluc; experiment: Viral infection assay with CHIKV-nanoluc in BHK-21 cells; type: cell-based, Chikungunya virus; settings: MOI 0.1, 16 h.p.i., read-out: EC50 (CHIKV-nanoluc replication)
[5] = tested on: BHK-21-GLuc-nsP-CHIKV-99659 cells; experiment: MTT cytotoxicity / cell viability in CHIKV replicon cells; settings: CHIKV replicon cells, 48 h, MTT assay; for CC50: read-out: CC50 (50% cytotoxicity)
[6] = tested on: BHK-21 cells; experiment: Cell viability in the viral infection assay; type: cell-based
[7] = Cell viability in the viral infection assay; type: cell-based; settings: hamster, BHK-21 cells infected with CHIKV-nanoluc
[8] = cited from earlier work
[9] = CHIKV replicon cells, GLuc signal from supernatant

Compound `CC(=O)N1CCN(c2ccc(OCC3COC(Cn4ccnc4)(c4ccc(Cl)cc4Cl)O3)cc2)CC1` (stereo not shown) [Ketoconazole] has a viability at 10 µM [1] of 100% and an inhibition at 10 µM ([2]; Chikungunya virus) of 0%.

`Clc1ccc(C(Cn2ccnc2)OCc2ccsc2Cl)c(Cl)c1` (stereo not shown) [Tioconazole] showed a viability at 10 µM [1] of 68.4% and an inhibition at 10 µM ([2]; Chikungunya virus) of 54.8%.

In the case of `Clc1ccc(COC(Cn2ccnc2)c2ccc(Cl)cc2Cl)c(Cl)c1` (stereo not shown) [Miconazole], the viability at 10 µM [1] is reported as 100% and the inhibition at 10 µM ([2]; Chikungunya virus) is reported as 27.8%.

With `C[C@@H](c1ncncc1F)[C@](O)(Cn1cncn1)c1ccc(F)cc1F` [Voriconazole] the viability at 10 µM [1] was 91.8% and the inhibition at 10 µM ([2]; Chikungunya virus) was 13.9%.

In the case of `Clc1ccccc1C(c1ccccc1)(c1ccccc1)n1ccnc1` [Clotrimazole], the viability at 10 µM [1] is reported as 70.2% and the inhibition at 10 µM ([2]; Chikungunya virus) is reported as 70.7%.

For `Cc1ccc(C(=O)Nc2ccc(S(=O)(=O)O)c3cc(S(=O)(=O)O)cc(S(=O)(=O)O)c23)cc1NC(=O)c1cccc(NC(=O)Nc2cccc(C(=O)Nc3cc(C(=O)Nc4ccc(S(=O)(=O)O)c5cc(S(=O)(=O)O)cc(S(=O)(=O)O)c45)ccc3C)c2)c1` [suramin], the EC50 [3] is listed as 6.7 µM, the CC50 at 48 h [1] is listed as over 50 µM and the EC50 ([2]; Chikungunya virus) is listed as 3.2 ± 0.3 µM.

For `C[C@H](C(N)=O)N1CCCC[C@@H]1c1ccc(OCc2cccc(F)c2)cc1` [MMV676270], the EC50 [4] was 18.4 ± 5 µM, the “CC50 (50% cytotoxicity)” value [5] was “moderate toxicities” and the CC50 [5] was 52 ± 20 µM. For the same compound, the CC50 [6] was 59.5 µM, the EC50 [2, 9] was 5.2 ± 1 µM and the “SI (CC50/EC50)” value [2] was 10.

In the case of `CC[C@@]1(O)C(=O)OCc2c1cc1n(c2=O)Cc2cc3c([N+](=O)[O-])cccc3nc2-1` [Rubitecan, rubitecan], the EC50 ([4]; Chikungunya virus) is reported as 3.6 ± 0.8 µM, the CC50 at 48 h [1] is reported as over 100 µM and the CC50 at 16 h [7] is reported as over 100 µM. The EC50 ([2]; Chikungunya virus) was 0.14 ± 0.03 µM and the “SI (CC50/EC50)” value [2] was over 714.

In the case of `CC[C@@H]([C@H](C)O)n1ncn(-c2ccc(N3CCN(c4ccc(OC[C@@H]5CO[C@@](Cn6cncn6)(c6ccc(F)cc6F)C5)cc4)CC3)cc2)c1=O` [Posaconazole], the “no toxic effects up to concentration” value [8] is given as over 100 µM, the viability at 10 µM [1] is given as 100% and the inhibition at 10 µM ([2]; Chikungunya virus) is given as 11.8%.

Work on `OC(Cn1cncn1)(Cn1cncn1)c1ccc(F)cc1F` [Fluconazole] yielded a viability at 10 µM [1] of 94.3% and an inhibition at 10 µM ([2]; Chikungunya virus) of 0%.

`C[C@@H](c1nc(-c2ccc(C#N)cc2)cs1)[C@](O)(Cn1cncn1)c1ccc(F)cc1F` [Ravuconazole] gave a viability at 10 µM [1] of 100% and an inhibition at 10 µM ([2]; Chikungunya virus) of 25.4%.

Compound `CCC(C)n1ncn(-c2ccc(N3CCN(c4ccc(OCC5COC(Cn6cncn6)(c6ccc(Cl)cc6Cl)O5)cc4)CC3)cc2)c1=O` (stereo not shown) [Itraconazole, itraconazole] has an EC50 ([4]; Chikungunya virus) of 0.34 ± 0.02 µM, a CC50 at 48 h [1] of over 100 µM and a CC50 at 16 h [7] of over 100 µM. For the same compound, the EC50 ([2]; Chikungunya virus) was 0.32 ± 0.2 µM and the “SI (CC50/EC50)” value [2] was over 312.

With `Clc1ccc(COC(Cn2ccnc2)c2ccc(Cl)cc2Cl)cc1` (stereo not shown) [Econazole] the viability at 10 µM [1] was 81.8% and the inhibition at 10 µM ([2]; Chikungunya virus) was 43.8%.

`C[C@@H](c1nc(-c2ccc(C#N)cc2)cs1)[C@](O)(Cn1cncn1)c1cc(F)ccc1F` [Isavuconazole] gave a viability at 10 µM [1] of 100% and an inhibition at 10 µM ([2]; Chikungunya virus) of 28.6%.

For `O=C(N[C@@H]1CCCc2c1[nH]c1ccc(Cl)cc21)c1ccccn1` [GSK-983], the EC50 [4] was 13.8 ± 3.3 µM, the “CC50 (50% cytotoxicity)” value [5] was “moderate toxicities” and the CC50 [5] was 10 ± 0.07 µM. For the same compound, the CC50 [6] was over 100 µM, the EC50 [2, 9] was 0.33 ± 0.2 µM and the “SI (CC50/EC50)” value [2] was 30.
